Measurements: patent US8748419B2, “Treating obesity with muscarinic receptor M1 antagonists” (priority 2006, dated 2014)

Key:
[1] = Reduction in weight gain of rats on a high fat diet (two-week treatment); type: in vivo, Sprague-Dawley rats; conditions: for % Reduction: treatment minus vehicle % weight gain
Protocol: Reduction in Weight Gain: Three- to four-month-old (475-550 grams) male, Sprague-Dawley rats (individually housed) were used to assess compounds for their ability to prevent weight gain. At the onset of chronic experiments, rats had been maintained (ad libitum access) on a “high fat” diet (BioServ Diet #F3282 or Research Diets #12451) for approximately one month. Individual body weights and water consumptions were recorded three times per week throughout the duration of the experiment. After approximately two weeks of data collection, rats were counter-balanced to produce treatment groups with equivalent mean body weights. Under isofluorane-induced anesthesia, rats were surgically implanted (subscapular, subcutaneous [sc] placement) with osmotic mini-pumps (Alzet 2mL2) containing the appropriate drug concentration (based on mean body weights and calculated durations of delivery). Alternatively, for studies using the oral route of administration, rats were dosed by gavage daily over 14 days at a volume of 3 mL/kg. Data collection was continued under drug treatment for approximately two more weeks. Change in body weight (expressed in grams) was calculated for the treatment interval. In this assay, vehicle-treated rats typically gain approximately 35-40 grams (+9%) over the two-week interval. Treatment effects are presented in Table 3 as % Weight Gain=[(Body Weight at End of Drug Infusion−Baseline Body Weight)/Baseline Body Weight]×100%, for both Vehicle and Treatment groups; as well as % Reduction=(% Weight Gain for Treatment group−% Weight Gain for Vehicle group). Body weights throughout the treatment period are presented in FIGS. 11-15 as the percentage of baseline body weight. Similar superscripts in the Dose column of Table 3 denote values derived from the same experiment (to facilitate comparisons between individual treatments and co-administrations). Statistical analyses were performed using a 1-way ANOVA (analysis of variance) followed by a Bonferroni multiple comparison test with the overall alpha set at 0.05. In Table 3, asterisks (*) denote significant effects compared to vehicle-treated rats, while letters (a or b) denote significant effects compared to rats treated with a single compound (“a” for significance from antidepressant and “b” for significance from telenzepine). In Table 3, one symbol denotes p<0.05, two symbols denote p<0.01 and three symbols denote p<0.001). The symbols used for denoting statistical significance may be different in the corresponding figures.

[2] = Appetite suppression: high fat food consumption in fasted rats (4-Hour and 24-Hour Consumption); type: in vivo, Sprague-Dawley rats
From the text: Appetite Suppression: Three-month-old (300-350 grams) male, Sprague-Dawley rats (individually housed) were used to assess compounds for their appetite suppressant effects. Rats were acclimatized to a “high fat” food diet (BioServ Diet #F3282 or Research Diets #12451) for two weeks prior to testing (access to food and water ad libitum). One day prior to the experiment (at 5:00 PM), food was removed from the cages in order to motivate feeding when the food was returned the following morning (water remained available throughout the experiment). Prior to presentation of the food, rats (n=8-10/dose group) were dosed intraperitoneally (ip) or orally (po) with the compound under investigation, returned to their home cage and immediately given a pre-weighed amount of food. Four hours after administration, the food was removed from the cage, weighed, recorded (4-Hour Consumption) and returned to the rat until the following morning. Twenty-four hours after administration, the remaining food was again weighed and recorded (24-Hour Consumption). Cumulative consumption (expressed in grams) was calculated for both the four and the twenty-four hour intervals. In this assay, vehicle-treated rats typically consume approximately 8 grams over the four-hour interval and approximately 25 grams over the twenty-four-hour interval.
Treatment effects are presented in Table 1 and FIGS. 1-5 (4-Hour Consumption) and Table 2 and FIGS. 6-10 (24-Hour Consumption). The effects are given as both Raw Consumption (in grams ±SEM [1 standard error of the mean]) and as % Reduction in 4-Hour or 24-Hour Consumption=[1-(Consumption following Drug Treatment/Consumption following Vehicle Treatment)]×100%. Similar superscripts in the Dose column of Tables 1 and 2 denote values derived from the same experiment (to facilitate comparisons between individual treatments and co-administrations). Statistical analyses were performed using a 1-way ANOVA (analysis of variance) followed by a Bonferroni multiple comparison test with the overall alpha set at 0.05. In Tables 1 and 2, asterisks (*) denote significant effects compared to vehicle-treated rats, while letters (a or b) denote significant effects compared to rats treated with a single compound (“a” for significance from antidepressant and “b” for significance from telenzepine). In Tables 1 and 2, one symbol denotes p<0.05, two symbols denote p<0.01 and three symbols denote p<0.001). The symbols used for denoting statistical significance may be different in the corresponding figures.

[3] = directly injected into the midbrain; cited from earlier work
[4] = 24 h, 10 mg/kg ip, experiment e
[5] = 24 h, 10 mg/kg po, experiment c
[6] = 24 h, 30 mg/kg po, experiment c

Cc1scc2c1N(C(=O)CN1CCN(C)CC1)c1ccccc1NC2=O [Telenzepine, 4,9-Dihydro-3-methyl-4-[(4-methyl-1-piperazinyl)acetyl]-10H-thieno[3,4-b][1,5]benzodiazepin-10-one]
Treatment: % Weight Gain ([1]; 0.3 mg/kg sc, experiment c): 4.4 ± 0.6%
% Reduction ([1]; 0.3 mg/kg sc, experiment c): −0.9%
Treatment: % Weight Gain ([1]; 1 mg/kg po, experiment d): 3.3 ± 0.6%
% Reduction ([1]; 1 mg/kg po, experiment d): −3.1%
reduction in body weight compared to vehicle treated rats ([1]; 3 mg/kg of telenzepine alone): 3.8%
Treatment: % Weight Gain ([1]; 3 mg/kg sc, experiment a): 1.5 ± 1.0%
% Reduction ([1]; 3 mg/kg sc, experiment a): −7.1%
Treatment: % Weight Gain ([1]; 3 mg/kg sc, experiment b): 4.3 ± 0.8%
% Reduction ([1]; 3 mg/kg sc, experiment b): −3.8%
% Reduction in Consumption ([2]; 4 h, 1 mg/kg ip, experiment b): 43%
Treatment Consumption ([2]; 4 h, 1 mg/kg ip, experiment b): 4.0 ± 0.50 g/4 Hrs
% Reduction in Consumption ([2]; 4 h, 1 mg/kg ip, experiment e): 38%
Treatment Consumption ([2]; 4 h, 1 mg/kg ip, experiment e): 5.7 ± 0.63 g/4 Hrs
Treatment Consumption ([2]; 4 h, 3 mg/kg ip, experiment a): 4.2 ± 0.36 g/4 Hrs
% Reduction in Consumption ([2]; 4 h, 3 mg/kg ip, experiment a, 3 mg/kg): 45%
% Reduction in Consumption ([2]; 4 h, 3 mg/kg ip, experiment a, listed as telenzepine, 3 mg/kg): 45%
Treatment Consumption ([2]; 4 h, 3 mg/kg ip, experiment b): 4.5 ± 0.40 g/4 Hrs
% Reduction in Consumption ([2]; 4 h, 3 mg/kg ip, experiment b, 3 mg/kg): 35%
% Reduction in Consumption ([2]; 4 h, 3 mg/kg ip, experiment b, listed as telenzepine, 3 mg/kg): 35%
% Reduction in Consumption ([2]; 4 h, 3 mg/kg ip, experiment e): 40%
Treatment Consumption ([2]; 4 h, 3 mg/kg ip, experiment e): 5.5 ± 0.60 g/4 Hrs
% Reduction in Consumption ([2]; 4 h, 10 mg/kg ip, experiment e): 56%
Treatment Consumption ([2]; 4 h, 10 mg/kg ip, experiment e): 4.1 ± 0.55 g/4 Hrs
% Reduction in Consumption ([2]; 4 h, 10 mg/kg po, experiment c): 28%
Treatment Consumption ([2]; 4 h, 10 mg/kg po, experiment c): 7.4 ± 0.64 g/4 Hrs
% Reduction in Consumption ([2]; 4 h, 30 mg/kg po, experiment c): 36%
Treatment Consumption ([2]; 4 h, 30 mg/kg po, experiment c): 6.6 ± 1.01 g/4 Hrs
% Reduction in Consumption ([2]; 24 h, 1 mg/kg ip, experiment b): 16%
Treatment Consumption ([2]; 24 h, 1 mg/kg ip, experiment b): 20.9 ± 0.78 g/24 Hrs
% Reduction in Consumption ([2]; 24 h, 1 mg/kg ip, experiment e): 18%
Treatment Consumption ([2]; 24 h, 1 mg/kg ip, experiment e): 23.6 ± 1.01 g/24 Hrs
Treatment Consumption ([2]; 24 h, 3 mg/kg ip, experiment a): 17.5 ± 1.38 g/24 Hrs
% Reduction in Consumption ([2]; 24 h, 3 mg/kg ip, experiment a, 3 mg/kg): 27%
% Reduction in Consumption ([2]; 24 h, 3 mg/kg ip, experiment a, listed as telenzepine, 3 mg/kg): 27%
Treatment Consumption ([2]; 24 h, 3 mg/kg ip, experiment b): 19.4 ± 0.94 g/24 Hrs
% Reduction in Consumption ([2]; 24 h, 3 mg/kg ip, experiment b, 3 mg/kg): 22%
% Reduction in Consumption ([2]; 24 h, 3 mg/kg ip, experiment b, listed as telenzepine, 3 mg/kg): 22%
% Reduction in Consumption ([2]; 24 h, 3 mg/kg ip, experiment e): 32%
Treatment Consumption ([2]; 24 h, 3 mg/kg ip, experiment e): 19.7 ± 0.95 g/24 Hrs
% Reduction in Consumption [2, 4]: 50%
Treatment Consumption [2, 4]: 14.5 ± 1.29 g/24 Hrs
% Reduction in Consumption [2, 5]: 39%
Treatment Consumption [2, 5]: 18.5 ± 2.33 g/24 Hrs
% Reduction in Consumption [2, 6]: 56%
Treatment Consumption [2, 6]: 13.3 ± 2.69 g/24 Hrs
effect on consumption ([2]; all doses tested (ip), given alone): significantly reduced consumption
GABA efflux [3]: reduced GABA efflux
